Square brackets hold non-standard residues; d marks the D form. Peptide text beside a SMILES is read from it. * marks the point of attachment. Orn = NCCC[C@H](N)C(=O)O; Hexanoyl = CCCCCC(=O)*; Aib = CC(C)(N)C(=O)O
Tests used:
[1] = Rat serum stability (activity remaining, CHO-VPAC2 DiscoveRx read-out); type: in vitro ADME
Procedure, shortened: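 Peptides preincubated overnight in rat serum at 37 °C without aprotinin versus 4 °C with aprotinin, then tested as 11-point 5× dilutions in duplicate on CHO-VPAC2 cells, 30 min at RT. cAMP measured by DiscoveRx kit against standards; EC50 derived for each aliquot.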

human VPAC1 = target: T1, human VPAC1 (Homo sapiens, UniProt P32241); test: Filter binding assay, 125I-labeled VIP tracer, VPAC1 membranes; conditions: read-out: Human VPAC1 Receptor Binding (IC50; nM)
T1 construct: expressed in transfected cells
T1 sequence (P32241 31-457): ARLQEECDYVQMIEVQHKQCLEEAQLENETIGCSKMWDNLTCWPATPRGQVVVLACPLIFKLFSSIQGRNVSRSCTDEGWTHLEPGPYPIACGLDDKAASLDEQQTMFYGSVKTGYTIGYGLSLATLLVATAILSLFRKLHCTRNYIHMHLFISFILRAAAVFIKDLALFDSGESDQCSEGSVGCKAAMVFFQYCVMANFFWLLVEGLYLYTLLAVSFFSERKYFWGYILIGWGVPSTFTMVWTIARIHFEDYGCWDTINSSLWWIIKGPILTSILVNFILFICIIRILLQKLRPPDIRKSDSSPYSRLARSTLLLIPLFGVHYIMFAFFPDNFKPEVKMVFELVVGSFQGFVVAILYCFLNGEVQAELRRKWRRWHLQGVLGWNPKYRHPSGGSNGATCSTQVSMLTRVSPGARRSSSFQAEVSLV
Experimental: (§1) For this assay, the solutions and equipment include:
(§2) Presoak solution: 0.5% Polyethyleneamine in Aqua dest
(§3) Buffer for flushing filter plates: 25 mM HEPES pH 7.4
(§4) Blocking buffer: 25 mM HEPES pH 7.4; 0.2% protease free BSA
(§5) Assay buffer: 25 mM HEPES pH 7.4; 0.5% protease free BSA
(§6) Dilution and assay plate: PS-Microplate, U form
(§7) Filtration Plate: Multiscreen FB Opaque Plate; 1.0 μM Type B Glasfiber filter
(§8) In order to prepare the filter plates, the presoak solution is aspirated by vacuum filtration. The plates are flushed twice with 200 μL flush buffer. 200 μL blocking buffer is added to the filter plate. The filter plate is then incubated with 200 μL presoak solution for 1 hour at room temperature.
(§9) The assay plate is filled with 25 μL assay buffer, 25 μL membranes (2.5 μg) suspended in assay buffer, 25 μL compound (agonist) in assay buffer, and 25 μL tracer (about 40000 cpm) in assay buffer. The filled plate is incubated for 1 hour with shaking.
(§10) The transfer from assay plate to filter plate is conducted. The blocking buffer is aspirated by vacuum filtration and washed two times with flush buffer. 90 μL is transferred from the assay plate to the filter plate. The 90 μL transferred from assay plate is aspirated and washed three times with 200 μL flush buffer. The plastic support is removed. It is dried for 1 hour at 60° C. 30 μL Microscint is added. The count is performed.

rat VPAC2 receptor = target: T2, rat VPAC2 receptor (Rattus norvegicus, UniProt P35000); test: DiscoveRx cAMP assay, in vitro potency at rat VPAC2 receptor; type: cell-based; conditions: CHO-PO cells transiently transfected with rat VPAC2; cAMP generation; mean of two independent runs
T2 construct: expressed in transfected cells; host or cells: CHO-PO (transient, Lipofectamine)
T2 sequence (P35000 23-437): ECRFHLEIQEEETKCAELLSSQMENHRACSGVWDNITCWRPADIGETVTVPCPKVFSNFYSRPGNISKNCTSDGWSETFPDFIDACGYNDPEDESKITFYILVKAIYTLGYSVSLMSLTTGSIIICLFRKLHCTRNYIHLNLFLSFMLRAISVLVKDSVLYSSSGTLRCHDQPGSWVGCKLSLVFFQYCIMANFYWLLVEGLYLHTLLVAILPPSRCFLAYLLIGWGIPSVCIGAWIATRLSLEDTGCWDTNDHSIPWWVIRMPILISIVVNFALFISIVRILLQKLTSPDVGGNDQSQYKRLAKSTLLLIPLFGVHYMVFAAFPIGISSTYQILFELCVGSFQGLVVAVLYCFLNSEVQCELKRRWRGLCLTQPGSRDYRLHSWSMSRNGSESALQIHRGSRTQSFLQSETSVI
Experimental: DiscoveRx: CHO-PO cells are transiently transfected with rat VPAC1 or VPAC2 receptor DNA using commercially available transfection reagents (Lipofectamine from Invitrogen). The cells are seeded at a density of 10,000/well in a 96-well plate and are allowed to grow for 3 days in […] culture medium. At day 3, the assay is performed.
On the day of the experiment, the medium is removed. Also, the cells are washed twice. The cells are incubated in assay buffer plus IBMX for 15 minutes at room temperature. Afterwards, the stimuli are added and are dissolved in assay buffer. The stimuli are present for 30 minutes. Then, the assay buffer is gently removed. The cell lysis reagent of the DiscoveRx cAMP kit is added. Thereafter, the standard protocol for developing the cAMP signal as described by the manufacturer is used (DiscoveRx Inc., USA). EC50 values for cAMP generation are calculated from the raw signal or are based on absolute cAMP levels as determined by a standard curve performed on each plate.
Results for each agonist are the mean of two independent runs. Rat VPAC1 and VPAC2 results are only generated using the DiscoveRx assay.

human PAC1 = target: T3, human PAC1 (Homo sapiens, UniProt P41586); test: Filter binding assay, 125I-labeled PACAP-27 tracer, PAC1 membranes; conditions: read-out: Human PAC1 Receptor Binding (IC50; nM)
T3 construct: expressed in transfected cells
T3 sequence (P41586 21-468): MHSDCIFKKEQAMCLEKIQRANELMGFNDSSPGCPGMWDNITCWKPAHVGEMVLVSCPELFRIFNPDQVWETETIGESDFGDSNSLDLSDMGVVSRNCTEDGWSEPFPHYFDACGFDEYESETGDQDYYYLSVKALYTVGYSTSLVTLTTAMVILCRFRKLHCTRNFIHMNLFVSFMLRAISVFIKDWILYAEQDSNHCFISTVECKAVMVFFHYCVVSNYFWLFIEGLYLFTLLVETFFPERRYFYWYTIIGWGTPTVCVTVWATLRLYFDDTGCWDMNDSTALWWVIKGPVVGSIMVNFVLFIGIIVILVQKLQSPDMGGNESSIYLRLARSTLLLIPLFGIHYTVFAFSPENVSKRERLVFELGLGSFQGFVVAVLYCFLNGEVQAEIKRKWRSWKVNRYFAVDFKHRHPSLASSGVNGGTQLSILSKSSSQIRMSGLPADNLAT
Experimental: as §1, §2, §3, §4, §5, §6, §7, §8, §9, §10

human VPAC2 [2] = target: T4, human VPAC2 (Homo sapiens, UniProt P41587); test: Alpha screen cAMP assay, in vitro potency at human VPAC2 receptor; type: cell-based; conditions: cAMP generation; single result from two analyses in a single run, some values average of more than one experiment
T4 construct: expressed in transfected cells
T4 sequence (P41587 24-438): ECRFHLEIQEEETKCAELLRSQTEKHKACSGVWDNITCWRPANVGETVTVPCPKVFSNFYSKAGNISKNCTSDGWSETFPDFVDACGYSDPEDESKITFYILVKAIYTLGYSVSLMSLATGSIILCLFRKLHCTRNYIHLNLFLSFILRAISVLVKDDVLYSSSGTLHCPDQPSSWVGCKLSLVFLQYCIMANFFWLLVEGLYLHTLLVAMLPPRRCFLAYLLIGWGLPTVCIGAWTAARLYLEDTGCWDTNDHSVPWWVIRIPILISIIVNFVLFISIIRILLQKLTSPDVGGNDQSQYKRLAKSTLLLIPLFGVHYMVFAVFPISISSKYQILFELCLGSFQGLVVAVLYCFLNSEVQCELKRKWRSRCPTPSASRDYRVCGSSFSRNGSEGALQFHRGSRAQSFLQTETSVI
Experimental: Alpha screen: Cells are washed in the culture flask once with PBS. Then, the cells are rinsed with enzyme free dissociation buffer. The dissociated cells are removed. The cells are then spun down and washed in stimulation buffer. For each data point, 50,000 cells suspended in stimulation buffer are used. To this buffer, Alpha screen acceptor beads are added along with the stimuli. This mixture is incubated for 60 minutes. Lysis buffer and Alpha screen donor beads are added and are incubated for 60 to 120 minutes. The Alpha screen signal (indicative of intracellular cAMP levels) is read in a suitable instrument (e.g. AlphaQuest from Perkin-Elmer). Steps including Alpha screen donor and acceptor beads are performed in reduced light. The EC50 for cAMP generation is calculated from the raw signal or is based on absolute cAMP levels as determined by a standard curve performed on each plate.
Results for each agonist are, at minimum, from two analyses performed in a single run. For some agonists, the results are the mean of more than one run. The tested peptide concentrations are: 10000, 1000, 100, 10, 3, 1, 0.1, 0.01, 0.003, 0.001, 0.0001 and 0.00001 nM.

human VPAC2 [3] = target: T4, human VPAC2; test: Filter binding assay, 125I-labeled VIP tracer, VPAC2 membranes; conditions: read-out: Human VPAC2 Receptor Binding (IC50; nM)

Row | SMILES | Rat Serum Stability (estimated purity in % after overnight incub.) [1] [%] | IC50 (human VPAC1) [nM] | EC50 (rat VPAC2 receptor) [nM] | IC50 (human PAC1) [nM] | EC50 (human VPAC2 [2]) [nM] | IC50 (human VPAC2 [3]) [nM]
1 | CCCCCC(=O)N[C@@H](Cc1c[nH]cn1)C(=O)N[C@@H](CO)C(=O)N[C@@H](CC(=O)O)C(=O)N[C@@H](C)C(=O)N[C@H](C(=O)N[C@@H](Cc1ccccc1)C(=O)N[C@H](C(=O)N[C@@H](CC(=O)O)C(=O)N[C@@H](CCC(N)=O)C(=O)N[C@@H](Cc1ccc(O)cc1)C(=O)N[C@H](C(=O)N[C@@H](CCCN)C(=O)N[C@@H](CC(C)C)C(=O)N[C@@H](CCCNC(=N)N)C(=O)NC(C)(C)C(=O)N[C@@H](CCC(N)=O)C(=O)N[C@H](C(=O)N[C@@H](C)C(=O)N[C@@H](C)C(=O)NC(C)(C)C(=O)N[C@@H](CCCCN)C(=O)N[C@@H](Cc1ccc(O)cc1)C(=O)N[C@@H](CC(C)C)C(=O)N[C@@H](CCC(N)=O)C(=O)N[C@@H](CO)C(=O)N[C@H](C(=O)N[C@@H](CCCN)C(=O)N[C@@H](CCC(N)=O)C(=O)N[C@@H](CCCN)C(=O)NCC(=O)NCC(=O)N1CCC[C@H]1C(=O)N[C@@H](CO)C(=O)N[C@@H](CO)C(=O)NCC(=O)N[C@@H](C)C(=O)N1CCC[C@H]1C(=O)N1CCC[C@H]1C(=O)N1CCC[C@H]1C(=O)N[C@@H](CO)C(=O)O)[C@@H](C)CC)C(C)C)[C@@H](C)O)[C@@H](C)O)C(C)C [Agonist P363] (Hexanoyl-HSDAVFTDQYT[Orn]LR[Aib]QVAA[Aib]KYLQSI[Orn]Q[Orn]GGPSSGAPPPS-OH; C-terminus assumed) | 81.66 | > 3000 | 0.09 | > 25000 | 0.27 | 
2 | CCCCCC(=O)N[C@@H](Cc1c[nH]cn1)C(=O)N[C@@H](CO)C(=O)N[C@@H](CC(=O)O)C(=O)N[C@@H](C)C(=O)N[C@H](C(=O)N[C@@H](Cc1ccccc1)C(=O)N[C@H](C(=O)N[C@@H](CC(=O)O)C(=O)N[C@@H](CC(N)=O)C(=O)N[C@@H](Cc1ccc(O)cc1)C(=O)N[C@H](C(=O)N[C@@H](CC(C)C)C(=O)N[C@@H](CC(C)C)C(=O)N[C@@H](CCCNC(=N)N)C(=O)NC(C)(C)C(=O)N[C@@H](CCC(N)=O)C(=O)N[C@H](C(=O)N[C@@H](C)C(=O)N[C@@H](C)C(=O)NC(C)(C)C(=O)N[C@@H](CCCCN)C(=O)N[C@@H](Cc1ccc(O)cc1)C(=O)N[C@@H](CC(C)C)C(=O)N[C@@H](CCC(N)=O)C(=O)N[C@@H](CO)C(=O)N[C@H](C(=O)N[C@@H](CCCN)C(=O)N[C@@H](CC(N)=O)C(=O)N[C@@H](CCCN)C(=O)NCC(=O)NCC(=O)N1CCC[C@H]1C(=O)N[C@@H](CO)C(=O)N[C@@H](CO)C(=O)NCC(=O)N[C@@H](C)C(=O)N1CCC[C@H]1C(=O)N1CCC[C@H]1C(=O)N1CCC[C@H]1C(=O)N[C@@H](CO)C(=O)O)[C@@H](C)CC)C(C)C)[C@@H](C)O)[C@@H](C)O)C(C)C [Agonist P367] (Hexanoyl-HSDAVFTDNYTLLR[Aib]QVAA[Aib]KYLQSI[Orn]N[Orn]GGPSSGAPPPS-OH; C-terminus assumed) | 55.82 | > 3000 |  | > 25000 |  | > 100
3 | CCCCCC(=O)N[C@@H](Cc1c[nH]cn1)C(=O)N[C@@H](CO)C(=O)N[C@@H](CC(=O)O)C(=O)N[C@@H](C)C(=O)N[C@H](C(=O)N[C@@H](Cc1ccccc1)C(=O)N[C@H](C(=O)N[C@@H](CC(=O)O)C(=O)N[C@@H](CC(N)=O)C(=O)N[C@@H](Cc1ccc(O)cc1)C(=O)N[C@H](C(=O)N[C@@H](CCCNC(=N)N)C(=O)N[C@@H](CC(C)C)C(=O)N[C@@H](CC(C)C)C(=O)N[C@@H](C)C(=O)N[C@@H](CCCCN)C(=O)N[C@@H](CC(C)C)C(=O)N[C@@H](C)C(=O)N[C@@H](CC(C)C)C(=O)N[C@@H](CCC(N)=O)C(=O)N[C@@H](CCCCN)C(=O)N[C@@H](Cc1ccc(O)cc1)C(=O)N[C@@H](CC(C)C)C(=O)N[C@@H](CCC(N)=O)C(=O)N[C@@H](CO)C(=O)N[C@H](C(=O)N[C@@H](CCCN)C(=O)N[C@@H](CC(N)=O)C(=O)N[C@@H](CCCN)C(=O)NCC(=O)NCC(=O)N1CCC[C@H]1C(=O)N[C@@H](CO)C(=O)N[C@@H](CO)C(=O)NCC(=O)N[C@@H](C)C(=O)N1CCC[C@H]1C(=O)N1CCC[C@H]1C(=O)N1CCC[C@H]1C(=O)N[C@@H](CO)C(=O)O)[C@@H](C)CC)[C@@H](C)O)[C@@H](C)O)C(C)C [Agonist P370] (Hexanoyl-HSDAVFTDNYTRLLAKLALQKYLQSI[Orn]N[Orn]GGPSSGAPPPS-OH; C-terminus assumed) | 41.82 | > 3000 | 0.05 | > 25000 | 0.23 | 
4 | CCCCCC(=O)N[C@@H](Cc1c[nH]cn1)C(=O)N[C@@H](CO)C(=O)N[C@@H](CC(=O)O)C(=O)N[C@@H](C)C(=O)N[C@H](C(=O)N[C@@H](Cc1ccccc1)C(=O)N[C@H](C(=O)N[C@@H](CC(=O)O)C(=O)N[C@@H](CC(N)=O)C(=O)N[C@@H](Cc1ccc(O)cc1)C(=O)N[C@H](C(=O)N[C@@H](CCCN)C(=O)N[C@@H](CC(C)C)C(=O)N[C@@H](CCCNC(=N)N)C(=O)NC(C)(C)C(=O)N[C@@H](CCC(N)=O)C(=O)N[C@H](C(=O)N[C@@H](C)C(=O)N[C@@H](C)C(=O)NC(C)(C)C(=O)N[C@@H](CCCCN)C(=O)N[C@@H](Cc1ccc(O)cc1)C(=O)N[C@@H](CC(C)C)C(=O)N[C@@H](CO)C(=O)N[C@@H](CO)C(=O)N[C@H](C(=O)N[C@@H](CCCN)C(=O)N[C@@H](CC(N)=O)C(=O)N[C@@H](CCCN)C(=O)NCC(=O)NCC(=O)N1CCC[C@H]1C(=O)N[C@@H](CO)C(=O)N[C@@H](CO)C(=O)NCC(=O)N[C@@H](C)C(=O)N1CCC[C@H]1C(=O)N1CCC[C@H]1C(=O)N1CCC[C@H]1C(=O)N[C@@H](CO)C(=O)O)[C@@H](C)CC)C(C)C)[C@@H](C)O)[C@@H](C)O)C(C)C [Agonist P383] (Hexanoyl-HSDAVFTDNYT[Orn]LR[Aib]QVAA[Aib]KYLSSI[Orn]N[Orn]GGPSSGAPPPS-OH; C-terminus assumed) | 113.66 | > 3000 | 0.18 | > 25000 | 0.12 | 

— patent publication US20080194482A1, “Selective Apac2 Receptor Peptide Agonists” (priority 2005, published 2008)
